“Also recorded” adds a separate entry of the source.
Key:
[1] = system: 5×FAD mouse brains; assay: Abeta immunoreactivity (6E10) in 5×FAD mouse brains; format: in vivo, mice; settings: chow containing 300 mg/Kg from postnatal day 61 for 4 months
Source text: Animal tissues were perfused with 1×PBS followed by overnight fixation in 4% paraformaldehyde in cold room. Vibrotome sections (˜50 μm thick) were immunostained with 6E10 antibody, which recognizes all forms of Abeta, and visualized by fluorescence microscopy.

[2] = system: SH-SY5Y human neuroblastoma cells; assay: Survival of SH-SY5Y cells following exposure to hydrogen peroxide; format: cell-based; settings: for cell survival following exposure to hydrogen peroxide: SH-SY5Y, 25-50 μM, hydrogen peroxide 10-100 μM; for oxidative stress measured by production of malondialdehyde (MDA) and hydrogen peroxide: cultured cells (cell type not specified); for difference in protective efficacy between the two differently-sourced TMP compounds: statistical analysis, TMP-N vs TMP-S
[3] = system: 5×FAD mouse retinas; assay: Retinal ganglion cell (RGC) quantification in 5×FAD mouse retinas; format: in vivo, mice; settings: chow containing 300 mg/Kg from postnatal day 61 for 4 months
Experimental: FIG. 24: Preservation of retinal ganglion cells (RGC) in 5×FAD mice by TMP (see Section 6.3.1). Numbers of RGC of wild-type, control (Vehicle) and TMP-treated mice were quantified.
5×FAD mice and wild type littermates (control) were fed with normal chow (Vehicle) or chow containing 300 mg/Kg of either TMP-N or TMP-S (see Section 6.3.1) from postnatal day 61 for exactly 4 months until the day of analysis. RGC cells were quantified in cross retinal sections as described in Liu et al., American Journal of Pathology, 2009.

[4] = system: mouse primary neurons; assay: Survival of mouse primary neurons following exposure to hydrogen peroxide; format: cell-based; settings: 25-50 μM, hydrogen peroxide 10-100 μM
[5] = system: 5×FAD mice; assay: Novel object recognition task in 5×FAD mice; format: in vivo; settings: chow containing 300 mg/Kg from postnatal day 61 for 4 months; N=8-12
Experimental: FIG. 22: Improvement of memory in 5×FAD mice by synthetic form of TMP treatments. Novel object recognition task was performed and depicted as FIG. 21.
Wild type littermates were used for comparison. All the mice were fed with normal chow (Vehicle) or containing 300 mg/Kg either TMP-N or TMP-S from postnatal day 61 for exactly 4 months until the day for the completion of behavioral assessments.

[6] = system: 3×Tg-AD mice; assay: Learning and memory in 3×Tg AD mice (novel object recognition, Morris water maze); format: in vivo; settings: 16-month old 3×Tg-AD females
Experimental: Both 16-month old 3×Tg-AD and background-matched wild type (WT) mice (females) were fed with TMPcontaining or nutrients matched control for 60 days as described in FIG. 3. (A) On day 61, all the mice were tested for object recognition as previously described. Briefly, mice (n=14 for each group) were habituated to a 60×30 cm container for 5 min. Two identical objects were placed in the bottom of the cage as mirror images of each other. The animal was trained for 5 min followed by a 5 min retention interval in the home cage. Then one of the objects in the test container was replaced with a novel object. During the 3-min probe trial, the mouse was placed in the cage and time spent investigating both objects was measured. A recognition index (R1) score is depicted as: (TimeN (in seconds for novel object)/TimeTotal (in seconds for both old and novel objects))×100. (B-D) Starting on day 62, all the mice were trained for 9 days on the Morris water maze (MWM) exactly as described for the behavior testing. […] (C) MWMprobe trial for number of platform location crosses, and (D) MWM probe trial for time spent in the target quadrant. As shown by the p values, (*) indicates significant improvement by TMP treatments with respect to the corresponding controls.
FIG. 21A-D: Improvement of learning and memory in aged 3×Tg AD mice by TMP treatment. Novel object recognition task was performed. A recognition index (R1) score is depicted as: [TimeN (in seconds for novel object)/TimeTotal (in seconds for both old and novel objects)]×100. B-D Starting on day 62, all the mice were trained for 9 days on the Morris water maze (MWM) for the behavior testing. […] (C) MWM probe trial for number of platform location crosses, and (D) MWM probe trial for time spent in the target quadrant. As shown by the p values, (*) indicates significant improvement by the compound treatments with respect to the corresponding controls.
TMP improves pathology in brains of 3×Tg-AD mice and results in increased memory and learning (See FIGS. 3, 4, and 10). In these mice, the earliest pathological hallmark is the accumulation of intraneuronal Aβ in the hippocampus, cortex and amygdala in 4 month old 3×Tg-AD homozygous mice. […] Between 4-6 months of age 3×Tg-AD homozygous mice develop diffuse amyloid plaques in the neocortex. At 6 months the retention deficits are associated with significant impairments in spatial learning of the Morris Water Maze task. […] Brain and retina pathology was evaluated by immunohistochemistry with specific antibodies and learning and memory performance were scored using the Novel Object Recognition Task and using Morris Water Maze trials.
The ability of TMP-N to improve learning and memory in 3×Tg AD mice was assessed using novel object recognition task. […]

[7] = system: Tg2576 mice; assay: Aβ-related vaccinations in Tg2576 mice: retinal and brain pathology; format: in vivo; settings: for Aβ deposits in hippocampal and neocortical areas of brain (6E10) / Aβ immunoreactivity in retinal microvessels / retinal amyloid angiopathy score: 10-month vaccination; for Aβ immunoreactivity in retinal microvessels / retinal amyloid angiopathy score: Aβ and vWF double-labeled microvessels, vs sham-immunized Tg2576
Experimental: The Aβ oligomer antigen was prepared from Aβ1-40 based on our previously published work (Kayed et al., 2003). Briefly, lyophilized Aβ1-40 peptides were resuspended in 50% acetonitrile in water and relyophilized. Soluble prefibrillar oligomers were prepared by dissolving 1.0 mg of peptide in 400 μl of hexafluoroisopropanol for 10˜20 minutes at room temperature. The resultant seedless solution (100 μl) was added to 900 μl of MilliQ H2O in a siliconized Eppendorf tube. After 10˜20 minutes incubation at room temperature, the samples were centrifuged for 15 minutes at 14,000×g, and the supernatant fraction (pH 2.8˜3.5) was transferred to a new siliconized tube and subjected to a gentle stream of N2 for 5˜10 minutes to evaporate the hexafluoroisopropanol. […] Oligomers were validated by atomic force microscopy, electron microscopy, and size exclusion chromatography as described previously (Kayed et al., 2003). The Aβ fibril was prepared from Aβ1-42, because it is more fibrillogenic as compared with Aβ1-40. Aβ1-40, predominantly in fibrillary form, was previously studied in a randomized, double-blind, placebo-controlled phase 2a clinical trial, study AN1792(QS-21)-201 by Gilman and colleagues (Gilman et al., 2005). Fibrils were formed by dissolving the lyophilized Aβ1-42 in 50% hexafluoroisopropanol and stirred with closed caps for 7 days. Solution is stirred again for 2 days in capped tubes with 20-gauge needle holes on the top to allow the hexafluoroisopropanol to evaporate. This whole preparation was done in a fume food to accelerate evaporation and minimize falling of dust or other foreign material. Fibrils were precipitated by centrifugation for 15 minutes at 14,000 rpm and washed in PBS, and resuspended at 2 mg/ml. For the prefibrillar oligomer antigen, Aβ oligomer (AO) molecular mimic was prepared by conjugating Aβ1-40 via a C-terminal thioester to 5-nm colloidal gold as described previously (Kayed and Glabe, 2006). […] Immunization schemes were conducted in a similar way as described previously (Zhou et al., 2005). […] Administration of an equivalent volume of PBS with the adjuvant but without any peptide antigen to both wild-type and transgenic mice was used as control. All experimental procedures were performed under protocols approved by the University of California Irvine Institutional Animal Care and Use Committee. Tissue Preparation: Mice were deeply anesthetized with an overdose of Nembutal (100 mg/kg, i.p.) and perfused transcardially with ice-cold PBS. The eyes were directly collected and fixed overnight with 4% paraformaldehyde in PBS (pH 7.4, 4° C.) following brain removal. Fixed eyes were stored in PBS containing 20% sucrose and 0.05% sodium azide (NaN3) at 4° C. until use. Following removal of lenses with forceps fixed eyes were cryomolded with OCT. Cross-retinal cryostat sections (12 μm) were thaw-mounted onto “Superfrost plus” glass slides (Fisher, Tustin, Calif.), air-dried for 30 minutes and stored at 4° C. before staining. […] Immunohistochemistry and Quantification: […] The immunoreactivity of APP, hyperphosphorylated tau (AT8), and Aβ in selected sections was also detected using the avidin-biotin complex method, followed by staining with DAB and brief counterstaining with hematoxylin. […] The results were evaluated by either fluorescence or conventional microscopy with a Leica DM microscope. Images were recorded using a Spot II charge-coupled device camera with equal exposure times for all different groups of tissues. […]

| Compound | Abeta immunoreactivity / deposits in brain (6E10) [1] | cell survival following exposure to hydrogen peroxide [2] | oxidative stress measured by production of malondialdehyde (MDA) and hydrogen peroxide [2] | difference in protective efficacy between the two differently-sourced TMP compounds [2] | number of retinal ganglion cells (RGC) [3] | cell survival following exposure to hydrogen peroxide [4] | memory performance, novel object recognition task [5] | Morris water maze (MWM) acquisition performance ([6]; TMP diet 60 days, trained 9 days from day 62) | learning and memory (object recognition, MWM probe trials) ([6]; TMP-containing diet) | Aβ deposits in hippocampal and neocortical areas of brain (6E10) [7] | Aβ immunoreactivity in retinal microvessels / retinal amyloid angiopathy score [7] | number of Aβ plaques / Aβ deposits in retina ([7]; 100 μg s.c. with incomplete Freund's adjuvant once a month for 10 months, vs PBS adjuvant) |
| --- | --- | --- | --- | --- | --- | --- | --- | --- | --- | --- | --- | --- |
| Cc1nc(C)c(C)nc1C [TMP-N, tetramethylpyrazine] | Abeta deposits were decreased in both cortical and hippocampal regions | significantly increased cell survival | remarkable reduction of oxidative stress | no significant difference | slightly preserved RGC; also recorded: slight protective effect on RGC | significantly increased cell survival | some negative effects; also recorded: slight negative effect on the memory performance | significantly improved the performance of 3×Tg-AD mice | significantly restored learning and memory | – | – | – |
| Cc1nc(C)c(C)nc1C [TMP-S, tetramethylpyrazine] | – | significantly increased cell survival | remarkable reduction of oxidative stress | no significant difference | significantly preserved RGC; also recorded: significantly increased number of RGC | significantly increased cell survival | significantly improved memory performance; also recorded: significantly improved this performance | – | – | – | – | – |
| AF: Aβ fibril prepared from Aβ1-42; vaccine immunogen | – | – | – | – | – | – | – | – | – | notably less Aβ deposits | even greater Aβ immunoreactivity | – |
| AO: Aβ oligomer molecular mimic prepared by conjugating Aβ1-40 via a C-terminal thioester to 5-nm colloidal gold; vaccine immunogen | – | – | – | – | – | – | – | – | – | notably less Aβ deposits | even greater Aβ immunoreactivity | significant reduction in the number of Aβ plaques |

From patent US20110200531A1, “TREATMENT AND DIAGNOSIS OF CENTRAL NERVOUS SYSTEM DISORDERS” (THE REGENTS OF THE UNIVERSITY OF CALIFORNIA, priority 2009, published 2011)
